# Legend:
# [1] = tested on: phenylbenzoquinone (PBQ)-induced writhing in mice; assay: Writhing Assay (PBQ-induced writhing in mice, analgesic activity); assay type: in vivo, mouse (Charles River male albino mice); details: i.g.; for Writhing assay: number of mice out of eight or ten in which test compound produced analgesia: 30 mpk, 30 min before PBQ i.p., fraction of mice
# From the text: The Writhing Assay is one of the most widely-used experimental procedures for measuring the analgesic activity of different narcotic and nonnarcotic analgesic agents, and involves the continuous, chemically-induced pain of visceral origin to an animal, such as a mouse or rat. [Gyires et al., Arch. int. Pharmacodyn, 267, 131-140 (1984); C. Vander Wende et al., Fed. Proc., 15, 494 (1956); Koster et al., Fed. Proc., 18, 412 (1959); and Witken et al., J. Pharmacol. exp. Ther., 133, 400-408 (1961).] Chemicals which may be used to induce this pain include phenylbenzoquinone (PBQ) and acetic acid. As a result of the chemical irritation to the animal, a characteristic stretching and writhing of the animal (dorsiflexion of the animal's back, extension of its hindlimbs and the strong contraction of its abdominal musculature) will generally occur. […] Drugs which reduce the number of writhes of the animal appear to restore the normal nociceptive threshold of the animal.
# Charles River male albino mice, weighing 20 to 30 grams, were used in this assay.
# Thirty minutes after intragastric administration to ten mice of 30 mg per kilogram of body weight of a compound of the present invention ("test compound"), […] per 10 g of body weight of a 0.025% w/v solution of PBQ was injected intraperitoneally into each mouse. Ten mice which were given saline in place of a test compound of the invention were used as a control group.
# Five minutes later, each mouse was individually placed into a glass beaker for observation, and the number of writhes occurring during the following ten-minute period was counted.
# A test compound was considered to have produced analgesia in a mouse if, in accordance with the conditions set forth above, and under the test criteria employed for this assay, after the administration of 30 mg per kilogram of body weight of a compound of the present invention to the mouse, the number of writhes elicited by a mouse injected with PBQ was equal to, or less than, one-half the median number of writhes recorded for the saline-treated control group of mice that day, as described by Taber in "Predictive Value of Analgesic Assays in Mice and Rats," Advances in Biochemical Psychopharmacology, 8, 191 (1974).
# The results for the particular compounds of the present invention analyzed in this assay, and discussed in the examples identified below which correspond thereto, are presented in Table 1 hereinbelow as fractions under the heading "WRITHING ASSAY." The fractions indicate the number of mice out of eight or ten in which a test compound produced analgesia.
# The standard initial screening dose of a test compound employed in this assay was 30 mpk […]. Generally, if this initial screening dose of the test compound produced analgesia in seven out of ten mice, then the effect of additional doses of the test compound on the writhing response was evaluated, and then the ED50 dose was generally calculated. (The slopes of the dose-response curves for all test compounds analyzed were compared as described by Tallarida and Murray, Manual of Pharmacologic Calculations, Page 11 (Springer Verlag, New York, 1981)).
# All ED50 doses calculated are also presented in Table 1 hereinbelow under the heading "WRITHING ASSAY," but as whole numbers.
# [2] = tested on: prostaglandin E2-induced contractions of guinea pig ileum; assay: Prostaglandin (PGE) Antagonism Assay (inhibition of prostaglandin E2-induced contractions of segments of guinea pig ileum); details: test compound 3 × 10^-6 M, 30 min incubation; dose ratio of PGE2 EC50 values; average where more than one determined
# Description: (b) Prostaglandin (PGE) Antagonism Assay
# In order to determine the effectiveness of several of the compounds of the present invention ("test compounds") as prostaglandin E2 antagonists,a prostaglandin antagonism assay was conducted, as described below, to determine the ability of these compounds to inhibit prostaglandin E2 -induced contractions of segments of guinea pig ileum.
# Male albino guinea pigs weighing 200 to 500 grams were sacrificed by cervical dislocation. The ilea were then quickly removed from the guinea pigs and placed in a modified Tyrode solution, a solution which is known to those skilled in the art, containing one-half of the usual amount of magnesium ions.
# Segments of ileum about 2 cm long were then cut and mounted in a 10 mL tissue bath containing the modified Tyrode solution. The solution was maintained at 37° C. and aerated with a gaseous mixture of 95% oxygen and 5% carbon dioxide. Data for a control prostaglandin E2 dose response curve plotting concentration of prostaglandin E2 versus the intensity of contractions, detected isotonically, was then obtained by experimentally adjusting the dose of the prostaglandin E2 being injected into the tissue bath, in a manner known by those of skill in the art.
# Solutions or suspensions containing an initial concentration (3 micromolar) of a test compound in modified Tyrode solution ("test solutions/suspensions") were then separately substituted for the control bath solution. Each test solution/suspension was then kept in constant contact with the ileum tissue, except for brief periods to drain the bath in preparation for rinsing with fresh test solution/suspension. A second prostaglandin E2 dose response curve was then generated for prostaglandin E2 in the presence of a test compound.
# A control dose response curve is produced in isolated segments of guinea pig ileum mounted in an automated apparatus with six concentrations of prostaglandin E2. A solution or suspension of test compound is substituted for the control bathing solution and is incubated for thirty minutes. An additional prostaglandin E2 dose response curve is then performed in the presence of the test compound. A dose ratio is calculated from the EC50 values obtained from duplicate replications on each concentration of the test compound.
# A dose ratio of EC50 doses was calculated from the results of each test in a manner known by those of skill in the art, and described above.
# The dose ratios reported in Table 1 represent an average of multiple dose ratios for those compounds for which more than one dose ratio was determined. The compounds of the present invention which were tested in this assay, and for which results are presented in Table 1, correspond to the particular examples specified in Table 1.
# The pA2 value (a statistical constant which is a common measure of expressing the potency of a particular drug as a competitive antagonist), rather than the dose ratio, was calculated for the test compound shown and described in Example 6 by schild plot calculations, as described by H. O. Schild, "pA, A New Scale for the Measurement of Drug Antagonism," Br. J. Pharmacol, 2, 189 (1947), and is reported in Table 1.
SMILES,Writhing assay: number of mice out of eight or ten in which test compound produced analgesia ([1]; 30 mg/kg),PGE2 antagonism in guinea pig ileum: Dose Ratio at 3 × 10^-6 M [2],Writhing assay: number of mice out of eight or ten in which test compound produced analgesia [1],"ED50 ([1]; Mus musculus, PBQ i.p., read-out: Writhing assay: ED50 Dose (I.G.)) [mg/kg]"
"O=C1OC(c2ccncc2)c2c(Cl)ccc3c2N1Cc1ccccc1O3 (single isomer, unassigned; (-)) [Compound 5b, (-)-4-chloro-3-(4-pyridyl)-1H,3H,12H-[3,1]-benzoxazino[8,1-b,c][1, 4]benzoxazepin-1-one]",4/10,80.5,,
"O=C1OC(c2ccccc2)c2c(Cl)ccc3c2N1Cc1ccccc1O3 (stereo not shown) [Compound 2, 4-chloro-3-phenyl-1H,3H,12H-[3,1]-benzoxazino[8,1-b,c][1,4]benzoxazepin-1-one]",,29.2,1/10,
"O=C1OC(c2ccncc2)c2c(Cl)ccc3c2N1Cc1ccccc1O3 (stereo not shown) [Compound 5, 4-chloro-3-(4-pyridyl)-1H,3H,12H-[3,1]-benzoxazino-[8,1-b,c][1,4]benzoxazepin-1-one]",,10.93,10/10,3.7
"O=C1O[C@@H](c2ccncc2)[C@H]2c3ccccc3Oc3ccc(Cl)cc3N12 [Compound 6a, (+)-trans-6-chloro-1,13b-dihydro-1-(4-pyridyl)-3H-dibenz[b,f]oxazolo[3,4-d][1,4]oxazepin-3-one]",2/10,23.4,,
"O=C1O[C@@H](c2ccncc2)[C@H]2c3ccccc3Oc3ccc(Cl)cc3N12 [Compound 6b, (-)-trans-6-chloro-1,13b-dihydro-1-(4-pyridyl)-3H-dibenz[b,f]oxazolo[3,4-d][1,4]oxazepin-3-one]",6/10,2.7,,
"O=C1OC(c2ccccn2)C2c3ccccc3Oc3ccc(Cl)cc3N12 (stereo not shown) [Compound 10, 6-chloro-1,13b-dihydro-1-(2-pyridyl)-3H-dibenz-[b,f]oxazolo[3,4-d][1,4]oxazepin-3-one]",,28.94,1/10,
